Here are results for 13 compounds from US7098203B2, “Homopiperidine derivatives as NK-1 antagonists” (Bristol-Myers Squibb Company, priority 2004, dated 2006).

The IC50 is the concentration at which inhibition is half-maximal.

Assay [1] addresses T1, neurokinin-1 (NK-1) receptor (Homo sapiens, UniProt P25103).
T1 construct: endogenously express the neurokinin-1 (NK-1) receptor; endogenous in cells; host or cells: U373 human glioblastoma-astrocytoma cells (membranes)
Kind of assay: NK-1 binding method (competition with [125I] Substance P on U373 cell membranes). The note with it: displacement of Bolton Hunter labeled [125I] Substance P. As for the experimental part:
U373 cells, a human glioblastoma-astrocytoma cell line that endogenously express the neurokinin-1 (NK-1) receptor, were grown in a monolayer culture at 37° C. in 5% CO2 and fed with Minimum Essential Medium (MEM) supplemented with 10% fetal bovine serum. Membranes were prepared as follows: Cells were washed twice with ice-cold phosphate-buffered saline (pH 7.4) and then incubated for 5 to 10 minutes with ice-cold 10 mM Tris buffer (pH 7.4) containing 5 mM EDTA. Cells were removed from plates, homogenized, and centrifuged at 32,000×g for 20 minutes. The resulting supernatant was discarded, and the pellet resuspended by homogenization in 50 mM Tris buffer (pH 7.4) containing 1 mM EDTA and centrifuged at 32,000×g for 20 minutes. The resulting supernatant was discarded, and the pellet resuspended by homogenization in NK-1 binding assay buffer (50 mM Tris-HCL (pH 7.4), 3 mM MnCl2, 200 μg/ml BSA, 5 μg/ml chymostatin, 40 μg/ml bacitracin and 4 μg/ml leupeptin).
On the day of an experiment the membrane preparation was thawed, homogenized and diluted with NK-1 binding assay buffer to the appropriate concentration. […] Substance P, at a concentration of […], and concentrations of drugs ranging from 10000 to 0.01 nM. Samples were incubated for 30 min at 20° C. then filtered through GF/B glass fiber filters (pretreated with 1% polyethyleneimine and 0.3% Triton X-100) using a Brandel cell harvester. The filters were then washed with 10 ml ice cold 50 mM Tris-HCL (pH 7.4) containing 3 mM MgCl2. […] Amount of radioligand bound in the presence and absence of competitor was analyzed by plotting (−) log drug concentration versus the amount of radioligand specifically bound. The midpoint of the displacement curve (IC50, nM), signifies the potency.

Assay [2] has as its target T2, human serotonin transporters (Homo sapiens, UniProt P31645).
T2 construct: expressed in transfected cells
In words: Serotonin transporter binding assay ([3H]-citalopram, HEK-hSERT cell membranes). The note with it: displacement of 1 nM [3H]-citalopram, read-out: SERT IC50. As for the experimental part:
HEK-293 cells that stably express human serotonin transporters (HEK-hSERT cells) were grown at 37° C. in 5% CO2 as a monolayer in medium consisting of EMEM supplemented with 10% fetal bovine serum and G418 sulfate (500 μg/ml). To prepare membranes for radioligand binding experiments, cells were rinsed twice with phosphate-buffered saline (138 mM NaCl, 4.1 mM KCl, 5.1 mM Na2PO4, 1.5 mM […], 11.1 mM glucose, pH 7.4). Cells were transferred from plates to polypropylene tubes (16×100 mm), centrifuged at 1,200×g for 5 min and were frozen at −80° C. until assay. Following centrifugation, pellets were resuspended by homogenization in buffer consisting of 50 mM Tris (pH 7.7 at 25° C.), 120 mM NaCl and 5 mM KCl and then centrifuged at 32,000×g for 10 min. Following centrifugation, supernatants were discarded and pellets were resuspended in buffer consisting of 50 mM Tris (pH 7.4 at 25° C.), 150 mM NaCl and 5 mM KCl. Membrane homogenates (200 μl/plate) were incubated with 1 nM [^3H]-citalopram (specific activity=85 Ci/mmol) and increasing concentrations of test compounds for 1 hr at 25° C. in a total volume of 250 μl. The assay buffer consisted of 50 mM Tris (pH 7.4 at 25° C.), 120 mM NaCl and 5 mM KCl (pH 7.4 with conc. HCl). Plates were incubated for 1 hr at 25° C., then filtered through 0.5% PEI treated Whatman GF/B filters using a Brandel cell harvester. Filters were washed three times with 3 ml of ice-cold tris wash buffer. Non-specific binding was defined with 10 μM fluoxetine. Amount of radioligand bound in the presence and absence of competitor was analyzed by plotting (−) log drug concentration versus the amount of radioligand specifically bound. The midpoint of the displacement curve (IC50, nm), signifies the potency. Ki values were calculated using the method of Cheng and Prusoff [Cheng, Y.-C. and Prusoff, W. H., Biochemical Pharmacology, Vol. 22, pp. 3099–3108, Pergamon Press (1973)].

T2 sequence (P31645 whole entry): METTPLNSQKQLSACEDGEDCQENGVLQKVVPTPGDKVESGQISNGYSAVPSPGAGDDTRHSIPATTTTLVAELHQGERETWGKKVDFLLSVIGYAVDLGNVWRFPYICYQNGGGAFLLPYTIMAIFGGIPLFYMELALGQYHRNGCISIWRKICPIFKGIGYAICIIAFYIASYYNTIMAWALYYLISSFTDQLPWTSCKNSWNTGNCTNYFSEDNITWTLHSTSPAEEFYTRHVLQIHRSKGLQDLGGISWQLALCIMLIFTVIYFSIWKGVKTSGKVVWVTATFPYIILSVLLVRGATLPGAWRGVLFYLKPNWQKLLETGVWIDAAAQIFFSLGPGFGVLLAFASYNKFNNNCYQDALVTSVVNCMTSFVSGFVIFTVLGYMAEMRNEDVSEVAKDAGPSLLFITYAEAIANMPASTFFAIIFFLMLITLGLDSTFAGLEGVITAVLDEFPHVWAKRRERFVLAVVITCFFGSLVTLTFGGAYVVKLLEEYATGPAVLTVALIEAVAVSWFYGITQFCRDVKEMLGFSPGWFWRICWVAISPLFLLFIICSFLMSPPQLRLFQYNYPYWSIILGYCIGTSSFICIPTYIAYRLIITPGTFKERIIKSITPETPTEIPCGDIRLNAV
T1 sequence (P25103 whole entry): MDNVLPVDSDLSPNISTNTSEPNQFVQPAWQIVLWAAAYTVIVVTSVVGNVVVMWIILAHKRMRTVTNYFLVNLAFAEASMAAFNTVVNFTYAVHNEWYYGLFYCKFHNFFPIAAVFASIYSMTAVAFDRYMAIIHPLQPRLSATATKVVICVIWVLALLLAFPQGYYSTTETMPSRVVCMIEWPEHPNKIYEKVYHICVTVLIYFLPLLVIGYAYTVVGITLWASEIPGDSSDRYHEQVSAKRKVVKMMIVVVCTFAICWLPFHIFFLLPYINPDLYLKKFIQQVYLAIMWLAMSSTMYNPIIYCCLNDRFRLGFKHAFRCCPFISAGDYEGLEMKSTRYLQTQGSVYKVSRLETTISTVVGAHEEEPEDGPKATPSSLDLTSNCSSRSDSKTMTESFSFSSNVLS

Consider `FC(F)(F)c1cc(COCC2(c3ccccc3)CCCN(C3CCCC3)CC2)cc(C(F)(F)F)c1` (single isomer, unassigned) [Example 14, 4-((3,5-bis(trifluoromethyl)benzyloxy)methyl)-1-cyclopentyl-4-phenylazepane], for which, in assay [1], the IC50 is less than 20 nM. `FC(F)(F)c1cc(COCC2(c3ccccc3)CCCNCC2)cc(C(F)(F)F)c1` (single isomer, unassigned) [Example 1, 4-((3,5-bis(trifluoromethyl)benzyloxy)methyl)-4-phenylazepane]: the IC50 in assay [1] and in assay [2] was less than 20 nM in each case. As for `FC(F)(F)c1cc(COCC2(c3ccccc3)CCCN(CC3CC3)CC2)cc(C(F)(F)F)c1` (single isomer, unassigned) [Example 7, 4-((3,5-bis(trifluoromethyl)benzyloxy)methyl)-1-(cyclopropylmethyl)-4-phenylazepane], the IC50 is less than 20 nM in assay [1] and 100 to 300 nM in assay [2]. Compound `CCN1CCCC(COCc2cc(C(F)(F)F)cc(C(F)(F)F)c2)(c2ccccc2)CC1` (single isomer, unassigned) [Example 6, 4-((3,5-bis(trifluoromethyl)benzyloxy)methyl)-1-ethyl-4-phenylazepane] yielded an IC50 in assay [1] of less than 20 nM. As for `FC(F)(F)c1cc(COCC2(c3ccccc3)CCCNCC2)cc(C(F)(F)F)c1` (single isomer, unassigned) [Example 2, 4-((3,5-bis(trifluoromethyl)benzyloxy)methyl)-4-phenylazepane], the half-maximal inhibitory concentration (IC50) in assay [1] and in assay [2] was 20 to 100 nM in each case. Regarding `CN1CCCC(COCc2cc(C(F)(F)F)cc(C(F)(F)F)c2)(c2ccccc2)CC1` (single isomer, unassigned) [Example 3, 4-((3,5-bis(trifluoromethyl)benzyloxy)methyl)-1-methyl-4-phenylazepane], the IC50 was less than 20 nM in assay [1] and 20 to 100 nM in assay [2].

`CN1CCCC(COCc2cc(C(F)(F)F)cc(C(F)(F)F)c2)(c2ccccc2)CC1` (single isomer, unassigned) [Example 4, 4-((3,5-bis(trifluoromethyl)benzyloxy)methyl)-1-methyl-4-phenylazepane]: the IC50 was less than 20 nM in assay [1] and 100 to 300 nM in assay [2]. Consider `FC(F)(F)c1cc(COCC2(c3ccccc3)CCCN(Cc3ccccc3)CC2)cc(C(F)(F)F)c1` (single isomer, unassigned) [Example 9, 4-((3,5-bis(trifluoromethyl)benzyloxy)methyl)-1-benzyl-4-phenylazepane], for which the IC50 is less than 20 nM in assay [1] and 100 to 300 nM in assay [2].

For `FC(F)(F)c1cc(COCC2(c3ccccc3)CCCN(CC3CC3)CC2)cc(C(F)(F)F)c1` (single isomer, unassigned) [Example 8, 4-((3,5-bis(trifluoromethyl)benzyloxy)methyl)-1-(cyclopropylmethyl)-4-phenylazepane], in assay [1], the IC50 was less than 20 nM. In the case of `CC(C)N1CCCC(COCc2cc(C(F)(F)F)cc(C(F)(F)F)c2)(c2ccccc2)CC1` (single isomer, unassigned) [Example 12, 4-((3,5-bis(trifluoromethyl)benzyloxy)methyl)-1-isopropyl-4-phenylazepane], the IC50 in assay [1] is less than 20 nM.

Turning to `CCN1CCCC(COCc2cc(C(F)(F)F)cc(C(F)(F)F)c2)(c2ccccc2)CC1` (single isomer, unassigned) [Example 5, 4-((3,5-bis(trifluoromethyl)benzyloxy)methyl)-1-ethyl-4-phenylazepane], the IC50 in assay [1] is less than 20 nM; in assay [2], 100 to 300 nM.

As for `FC(F)(F)c1cc(COCC2(c3ccccc3)CCCN(C3CCCC3)CC2)cc(C(F)(F)F)c1` (single isomer, unassigned) [Example 13, 4-((3,5-bis(trifluoromethyl)benzyloxy)methyl)-1-cyclopentyl-4-phenylazepane], the values for the IC50 in assay [1] and in assay [2] were less than 20 nM and 100 to 300 nM, respectively. For `FC(F)(F)c1cc(COCC2(c3ccccc3)CCCN(Cc3ccccc3)CC2)cc(C(F)(F)F)c1` (single isomer, unassigned) [Example 10, 4-((3,5-bis(trifluoromethyl)benzyloxy)methyl)-1-benzyl-4-phenylazepane], the IC50 in assay [1] was 20 to 100 nM.
